According to EP0568946A1, “Compound TAN-1607A, its derivatives, their production, and use thereof” (TAKEDA CHEMICAL INDUSTRIES, LTD., priority 1992, dated 1993):

Test system: mice
Test: Acute toxicity test using mice
Assay type: in vivo
Conditions: 100 mg/kg administered intraperitoneally
Procedure: Further, no mice died in an acute toxicity test using mice in which the compound TAN-1607A (100 mg/kg) was administered intraperitoneally.

CC(=O)OC(CCCC12OC(C(=O)O)C(O)(C(=O)O)C(C(=O)O)(O1)C(OC(=O)CCCCCCCC/C=C/c1ccccc1)C2O)C(C)C/C=C/c1ccccc1 (stereo not shown) [TAN-1607A]
acute toxicity (mortality): no mice died
